According to ChEMBL document CHEMBL4421729 (2013):

Molecular target: T1, Taste receptor type 2 member 46 (Homo sapiens) (UniProt P59540)
T1 sequence (whole entry): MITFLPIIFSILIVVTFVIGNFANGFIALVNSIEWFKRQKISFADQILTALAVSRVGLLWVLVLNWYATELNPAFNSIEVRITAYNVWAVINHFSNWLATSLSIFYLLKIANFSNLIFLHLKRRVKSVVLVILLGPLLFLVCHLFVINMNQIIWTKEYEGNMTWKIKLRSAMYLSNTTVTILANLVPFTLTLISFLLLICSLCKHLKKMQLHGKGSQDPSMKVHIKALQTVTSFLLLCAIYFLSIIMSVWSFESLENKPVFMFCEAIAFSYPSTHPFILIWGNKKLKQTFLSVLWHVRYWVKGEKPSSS
Experiment: Agonist activity human TAS2R46 transiently expressed in HEK293T/Galpha16-gustducin 44 cells assessed as effect on calcium flux by measuring deltaF/F0 ratio by Fluo-4-AM dye based FLIPR assay
Assay type: functional, cell-based

COc1ccc2c(c1)[C@]13CCCC[C@@H]1[C@H](C2)N(C)CC3
Activity: Dose-dependent effect
